Columns and labels:
TRL V6 = experiment: Cross therapeutic target rat study: reduction of circulating TRL V6 concentration after an acute dose (NMR LipoProfile); format: in vivo, DIO-LE rats; conditions: for Reduction in TRL V6 Response T1-(ie 2 hrs) / Reduction in TRL V6 Response T2-(ie 5 hrs) / Reduction in TRL V6 Response T3-(ie 18 hrs): DIO-LE rats on high fat chow, acute dose as in the Dose column; for Reduction in TRL V6 Response T1-(ie 2 hrs): T1 (ie 2 hrs) post dose; for Reduction in TRL V6 Response T2-(ie 5 hrs): T2 (ie 5 hrs) post dose; for Reduction in TRL V6 Response T3-(ie 18 hrs): T3 (ie 18 hrs) post dose; for reduction of circulating concentration of TRL V6 / time by which TRL V6 plasma concentration returns to baseline / reduction of circulating TRL V6 concentration: SNDRI 3 mg/kg; for time by which TRL V6 plasma concentration returns to baseline: post dose
Protocol: As a typical example, whole blood samples are collected into 2 ml EDTA blood collection tubes, inverted several times to mix well, and placed on ice. The samples are then centrifuged at approximately 3000 rpm for 10-15 minutes at 4° C. Upon completion of centrifugation, the tube is placed on ice and the plasma is drawn off The plasma is place into a polypropylene tube and kept at 4° C. until analysis. Samples may be analyzed at any time up to about 4 days after collection. Samples are analyzed for TRL V6 response, as for example by NMR plasma lipoprotein analysis, as for example, the NMR LipoProfile®, the NMR LipoProfile®-II or the NMR LipoProfile®-III lipoprotein tests provided by LipoScience, Inc. of Raleigh, N.C.
The ability of investigational weight loss pharmaceutical agents to reduce the TRL V6 concentration in rats is shown with three compounds targeting different mechanisms of action including a known potent and selective 5-HT2C receptor agonist, a known potent and selective CB-1 receptor antagonist/inverse agonist, and a potent SNDRI (sibutramine) Each of these compounds are known to induce weight loss in rats and thus the biomarker of reduction in TRL V6 concentration correlates to the investigational weight loss pharmaceutical agents' ability to induce weight loss. Conversely, an opiate antagonist, (naltrexone) which is known to be ineffective in inducing weight loss in rats or in overweight and obese human subjects (Malcolm R et al., Int. J. Obes. 1985; 9(5):347-53), is shown to not reduce the TRL V6 concentration in rats, again correlating the biomarker of reduction in TRL V6 concentration to the investigational weight loss pharmaceutical agents' ability to induce weight loss.
DIO-LE rats maintained on a high fat chow are administered either a vehicle dose or an acute dose of test compound. At specified time points post dose, animals are sacrificed and blood is collected in blood sample tubes containing EDTA and processed essentially as described above. Samples are analyzed by NMR LipoProfile® lipoprotein sub-particle test with report of all particle subtypes (specifically the TRL V6 concentration or particle number).

[1] = system: large triglyceride rich lipoprotein subclasses; experiment: Human study with sibutramine: TRL response (AUC 5-11 hr) to fat load versus placebo, NMR LipoProfile; format: in vivo
Protocol: Note that where TRL V6 response can be equated with the response of a combination of subtypes, it is because the magnitude of the change in signal, which is due to the change of TRL V6 signal, is sufficiently large compared to the base line signal, to be a significant difference (i.e. the signal from TRL V6 in the base line signal dominates the combined signal so that a change in TRL V6 is reliably detected).
A SNDRI (sibutramine) known to be able to induce weight loss in humans is tested to correlate its ability to reduce TRL V6 response plasma concentrations and V-TRL response in humans in an exploratory biomarker study employing a single-blind, crossover design, comparing sibutramine and placebo in hypertriglyceridemic and overweight and obese but otherwise healthy subjects.
Three cohorts containing 6 subjects each, undergo three periods during the study. Subjects are fasted overnight and two fasting blood draws are obtained, followed by breakfast at approximately 07:00 hours. Placebo or sibutramine is administered at approximately 10:00 hours. Blood sampling is begun approximately 1 hr. after the start of breakfast and continues at hourly intervals for 7 hr., and then every 2 hr. for the next 10 hr. A lunch according to Example fat load 2 is served at approximately 12:00 hours (approximately 60 to 65 g of fat). No other food is permitted until 12 hr. post fat load administration. Subjects are released after the last blood sampling for a 4 to 8-day washout period before return for the second testing period of the study. After the washout period, subjects are again fasted overnight. The procedures are then repeated as in the first testing period of the study except that each subject crosses over to receive the alternate treatment, sibutramine or placebo. Blood samples are collected, processed and analyzed essentially as described in Example 1 above.
TRL V6 responses and V-TRL responses are observed during the period from 5 to 11 hr. post fat load. […] In most subjects, the administration of sibutramine reduced the magnitude of the TRL V6 response and V-TRL response compared to their placebo-treated responses. Thus the reduction of the TRL V6 response and V-TRL response induced by the SNDRI correlates with the SNDRI known ability to induce weight loss in humans.

[2] = rats, 2 hr. post dose, 5-HT2C agonist 10 mg/kg, naltrexone 10 mg/kg oral
[3] = rats, 5-HT2C agonist 10 mg/kg, CB-1 antagonist 0.3 mg/kg, naltrexone 10 mg/kg oral
[4] = rats, 5 hr. post dose, CB-1 antagonist 0.3 mg/kg
[5] = AUC 5-11 hr. time points from lipid load
[6] = AUC 5-11 hr. time points from lipid load, chylomicrons
[7] = versus placebo, 5-11 hr. post fat load

Compound: O=C1CC[C@@]2(O)[C@H]3Cc4ccc(O)c5c4[C@@]2(CCN3CC2CC2)[C@H]1O5 [Naltrexone, naltrexone]
- Reduction in TRL V6 Response T1-(ie 2 hrs) (TRL V6): 30%
- Reduction in TRL V6 Response T2-(ie 5 hrs) (TRL V6): 0%
- Reduction in TRL V6 Response T3-(ie 18 hrs) (TRL V6): 0%
- TRL V6 level at 18 hr. post dose (in words) (TRL V6; rats, 10 mg/kg oral, 18 hr. post dose): unchanged
- effect on circulating TRL V6 levels (in words) (TRL V6; rats, 10 mg/kg orally administrated dose): minimal effect
- reduction of circulating concentration of TRL V6 (TRL V6; [2]): 30%
- time by which TRL V6 plasma concentration returns to baseline (TRL V6; [3]): 5 h

Compound: CC(C)CC(N(C)C)C1(c2ccc(Cl)cc2)CCC1 (stereo not drawn) [Sibutramine, sibutramine]
- Reduction in TRL V6 Response T1-(ie 2 hrs) (TRL V6): 78%
- Reduction in TRL V6 Response T2-(ie 5 hrs) (TRL V6): 78%
- Reduction in TRL V6 Response T3-(ie 18 hrs) (TRL V6): 0%
- reduction of circulating concentration of TRL V6 (TRL V6; [2]): about 78%
- reduction of circulating TRL V6 concentration (TRL V6; rats, 2 hr. post dose): about 78%
- reduction of circulating TRL V6 concentration (TRL V6; [4]): about 78%
- reduction of circulating concentration of TRL V6 (TRL V6; [4]): about 78%
- time by which TRL V6 plasma concentration returns to baseline (TRL V6; [3]): about 18 hr
- decrease in the TRL V6 response versus placebo ([1]; AUC 5-11 hr. post fat load, mixed effects model, average of treated arms): about 28%
- Geometric LS Mean of AUC, analyte TRL V5 [1, 5]: 222.34
- Geometric LS Mean of AUC, analyte TRL V6 [1, 5]: 119.35
- Geometric LS Mean of AUC, analytes TRL V6 + Chy [1, 5]: 205.0
- Geometric LS Mean of AUC, analytes TRL V6 + TRL V5 [1, 5]: 364.08
- Geometric LS Mean of AUC, analytes TRL V6 + V5 + Chy [1, 5]: 458.04
- Sibutramine/Placebo Ratio of AUC, analyte TRL V5 [1, 5]: 1.10
- Sibutramine/Placebo Ratio of AUC, analyte TRL V6 [1, 5]: 0.73
- Sibutramine/Placebo Ratio of AUC, analytes TRL V6 + Chy [1, 5]: 0.81
- Sibutramine/Placebo Ratio of AUC, analytes TRL V6 + TRL V5 [1, 5]: 0.88
- Sibutramine/Placebo Ratio of AUC, analytes TRL V6 + V5 + Chy [1, 5]: 0.89
- Geometric LS Mean of AUC, analyte Chy [1, 6]: 81.11
- Sibutramine/Placebo Ratio of AUC, analyte Chy [1, 6]: 0.98
- change in mean V-TRL response (in words) [1, 7]: statistically significant decrease
- change in plasma concentrations of TRL V1, V2, V3, V4, or V5 subtypes (in words) [1, 7]: does not show a significant change

— US8084261B2, “Method for predicting responsiveness to a pharmaceutical therapy for obesity” (priority 2007, dated 2011)
